Earlier results in patent US11083740B2, “Cancer therapy” (NED Biosystems, Inc., priority 2013, dated 2021).

How the values were obtained:
[1] = in vivo
[2] = tested on: hormone refractory PC-3 prostate cancer cells; conditions: PC-3 cells
HUVECs [3] = tested on: HUVECs
[4] = tested on: pancreatic carcinoma cells
HUVECs [5] = conditions: partially AMPK-dependent
[6] = tested on: cultured bovine granulosa cells; conditions: AMPK-dependent mechanism
[7] = in vivo; remark: listed apart in the source
[8] = in vivo; remark: listed apart in the source

O=C(O)CCCCC1CCSS1 (stereo not drawn) [Alpha-Lipoic Acid, 1,2-dithiolane-3-pentanoic acid]
bioavailability when taken with a meal [1]: decreases

O=c1c(-c2ccc(O)cc2)coc2cc(O)cc(O)c12 [Genistein]
IGF-1-stimulated cell growth [2]: significant inhibition

COc1ccc2[nH]cc(CCNC(C)=O)c2c1 [Melatonin, N-acetyl-5-methoxytryptamine]
cell proliferation and migration (HUVECs [3]): inhibits
VEGF protein secreted and produced [4]: decreases

CN(C)C(=N)N=C(N)N [Metformin]
proliferation, migration, and MMP-2 and -9 expression (HUVECs [5]): strongly inhibited
response to IGF1 [6]: reducing cell growth, protein synthesis, MAPK3/1, and P90RSK phosphorylation

CC(C)[C@@H](CC[C@@H](C)[C@H]1CC[C@H]2[C@@H]3[C@H](O)C[C@H]4C[C@@H](NCCCNCCCCN)CC[C@]4(C)[C@H]3CC[C@]12C)OS(=O)(=O)O [Squalamine]
maximum tolerated dose (MTD) [7]: 300 mg/m2/day
oral bioavailability [8]: does not have high oral bioavailability

[Met(5)]-enkephalin [Opioid Growth Factor [Met(5)]-enkephalin]
toxicity of metronomic dosing (50 μg/kg injected subcutaneously twice daily): no toxicity
maximum tolerated dose (30-minute intravenous infusion once or twice weekly): 0.25 mg/kg
